Laboratory results from PMC12538393 (RSC Advances, 2025).

How the values were obtained:
ACE = ACE (Homo sapiens, UniProt P12821); experiment: In vitro ACE inhibitory activity, DOJINDO ACE Kit-WST reagent box; assay type: biochemical
hypertensive animals = conditions: snake venom peptide; cited from earlier work

Sequence of ACE (P12821 30-1306, species assumed): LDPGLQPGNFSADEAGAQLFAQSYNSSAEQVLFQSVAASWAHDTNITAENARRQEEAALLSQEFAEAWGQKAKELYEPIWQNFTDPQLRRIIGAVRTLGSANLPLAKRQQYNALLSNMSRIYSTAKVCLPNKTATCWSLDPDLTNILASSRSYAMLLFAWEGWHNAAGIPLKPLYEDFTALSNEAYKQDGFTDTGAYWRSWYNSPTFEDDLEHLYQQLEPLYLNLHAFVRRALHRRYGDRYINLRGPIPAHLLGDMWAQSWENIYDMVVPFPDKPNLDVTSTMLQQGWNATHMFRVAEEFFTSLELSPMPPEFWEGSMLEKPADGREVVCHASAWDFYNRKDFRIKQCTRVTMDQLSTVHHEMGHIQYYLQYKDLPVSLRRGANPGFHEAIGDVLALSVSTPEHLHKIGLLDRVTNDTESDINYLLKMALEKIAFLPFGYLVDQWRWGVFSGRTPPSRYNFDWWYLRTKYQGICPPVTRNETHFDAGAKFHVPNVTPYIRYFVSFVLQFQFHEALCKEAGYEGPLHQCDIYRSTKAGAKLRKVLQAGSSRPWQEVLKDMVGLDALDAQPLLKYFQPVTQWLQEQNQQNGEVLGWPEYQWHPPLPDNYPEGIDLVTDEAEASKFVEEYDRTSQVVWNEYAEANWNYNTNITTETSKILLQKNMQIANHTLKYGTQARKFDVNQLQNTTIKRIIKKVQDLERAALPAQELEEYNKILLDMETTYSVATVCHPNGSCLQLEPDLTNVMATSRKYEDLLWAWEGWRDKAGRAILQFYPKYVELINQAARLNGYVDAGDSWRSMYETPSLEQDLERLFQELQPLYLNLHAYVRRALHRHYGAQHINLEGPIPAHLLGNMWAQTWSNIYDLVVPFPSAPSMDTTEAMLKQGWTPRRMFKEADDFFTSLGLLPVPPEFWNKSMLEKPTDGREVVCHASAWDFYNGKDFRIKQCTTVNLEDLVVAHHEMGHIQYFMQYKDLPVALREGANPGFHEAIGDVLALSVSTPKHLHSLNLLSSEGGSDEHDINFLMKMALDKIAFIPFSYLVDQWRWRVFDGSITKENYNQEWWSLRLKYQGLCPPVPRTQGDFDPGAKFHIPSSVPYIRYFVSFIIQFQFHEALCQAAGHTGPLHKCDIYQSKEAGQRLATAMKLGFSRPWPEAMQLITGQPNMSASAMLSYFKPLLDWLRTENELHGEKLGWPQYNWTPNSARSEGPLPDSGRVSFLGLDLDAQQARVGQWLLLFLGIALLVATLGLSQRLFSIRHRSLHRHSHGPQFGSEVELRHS

Substance	ACE-inhibitory activity, comparison in words (ACE)	antihypertensive effect for hypertensive animals (hypertensive animals)
H-Asp-Arg-Tyr-OH [D2]	potencies are still higher than that of compound 144	–
Pyr-Trp-Pro-Arg-Pro-Gln-Ile-Pro-Pro	–	best antihypertensive effect for hypertensive animals
H-Leu-Arg-Asn-OH [D1]	potencies are still higher than that of compound 144	–
